Where two headings read alike, the source gives them in different places. Marks after values point to notes of the source that are not given here. Square brackets hold non-standard residues; d marks the D form. Peptide text beside a SMILES is read from it. Sta = CC(C)C[C@H](N)[C@@H](O)CC(=O)O

Series [1] has as its target T1, BACE1 (β-secretase) (Homo sapiens, UniProt P56817).
T1 construct: host or cells: Baculovirus expression system
In words: biochemical.
Experimental: Assay for the analysis of BACE activity
BACE1 (β-secretase) purified and expressed in Baculovirus in 50 mM Tris HCl (pH=7.5), 10% glycerol (5 Units)
Assay buffer: 50 mM Sodium Acetate, pH=4.5
20 μL of substrate were added to 20 μL of the compound to be tested (or to the buffer if preparing the control well)
To start the reaction, 20 μL of BACE1 enzyme were added to the well.
The mixture was incubated at 37° C. for 60 minutes.
20 μL of the solution were added to stop the reaction. Then the fluorescence signal was read.
BACE activity was measured with a fluorimetric analysis method using a multi-well spectrofluorimeter. The peptide substrate of the analysis mimes the APP protein which is the natural substrate of BACE.
The inhibition curves were obtained for each compound by plotting on a graph the inhibition percentages obtained with respect to the logarithm of the inhibitor concentration. The linear regression parameters were determined and, when possible, the value of IC50 was extrapolated (GraphPad Prism 3.0 GraphPad Software Inc.).
The value of IC50 was calculated using GraphPad Prism software.

Series [2] deals with anti-NGF mice (AD11). In words: Cholinergic deficit of anti-NGF mice: ChAT immunohistochemistry, cholinergic neurones in the basal forebrain. To be noted: i.p., 15 days, doses of Table 6.
Experimental: Immunohistochemistry was carried out to show the number of cholinergic neurones in the basal forebrain. For this purpose, sections were incubated with the monoclonal antibody anticholine acetyltransferase (1:500, Chemicon International Inc., Temecula, Calif.).
Series [3] deals with human recombinant acetylcholinesterase (AChE or HuAChE) (Homo sapiens, UniProt P22303). The series can be described thus: biochemical. It counts as biochemical.
In series [4] the target is butyrylcholinesterase (BChE) from human serum (Homo sapiens, UniProt P06276). In words: biochemical. It counts as biochemical.
Series [5] has as its system SH-SY5Y cells. The series can be described thus: Toxic effects, colorimetric MTT assay. It counts as cell-based. To be noted: 24 hours. The method, then:
The results are expressed as a percentage of cells with respect to the control.
The cellular viability was expressed as a percentage of control cells and calculated by the formula Ft/Fnt×100, where Ft=absorbance of treated neurones and Fnt=absorbance of non treated neurones.
The SH-SY5Y cells were routinely grown at 37° C. in a humidified incubator with 5% CO2 in Dulbecco's modified Eagle's medium supplemented with 10% foetal calf serum (FCS), glutamine 2 mM, penicillin […] and streptomycin 50 μg/mL.
(Tetrazolium dyes change colour on reduction, which living cells bring about.)

In series [6] the test system is SH-SY5Y cells. In words: Intracellular antioxidant activity: ROS formation evoked by t-BuOOH (DCFH-DA probe). It counts as cell-based, human. The following applies: for % intracellular ROS: percentage increase of ROS by t-BuOOH, mean±SD of three tests. The method, then: Significant inhibiting effects were obtained with concentrations of 7 or 5 μM (p<0.01), 10 μM and 50 μM (for both p<0.001).
The results are expressed as the percentage increase of intracellular ROS determined by the treatment with tert-butyl hydroperoxide. Data are reported as the mean±SD (standard deviation) of three tests independent of one another (treated against not treated; *p<0.01, **p<0.001). ^btox=cytotoxicity.

For series [7], the target named is T2, AChE-induced Aβ40 aggregation (Homo sapiens, UniProt P22303). In words: biochemical. To be noted: read-out: % of inhibition ± SEM of AChE-induced Aβ40 aggregation.
Series [8] concerns the target T2, AChE-induced Aβ40 aggregation.
The mark [9] stands for this setting: human recombinant AChE, mean of two independent measurements, each in duplicate, read-out: IC50 AChE.
[10] abbreviates: BChE from human serum, mean of two independent measurements, each in duplicate, read-out: IC50 BChE.

butyrylcholinesterase (BChE) from human serum, sequence (P06276 29-602): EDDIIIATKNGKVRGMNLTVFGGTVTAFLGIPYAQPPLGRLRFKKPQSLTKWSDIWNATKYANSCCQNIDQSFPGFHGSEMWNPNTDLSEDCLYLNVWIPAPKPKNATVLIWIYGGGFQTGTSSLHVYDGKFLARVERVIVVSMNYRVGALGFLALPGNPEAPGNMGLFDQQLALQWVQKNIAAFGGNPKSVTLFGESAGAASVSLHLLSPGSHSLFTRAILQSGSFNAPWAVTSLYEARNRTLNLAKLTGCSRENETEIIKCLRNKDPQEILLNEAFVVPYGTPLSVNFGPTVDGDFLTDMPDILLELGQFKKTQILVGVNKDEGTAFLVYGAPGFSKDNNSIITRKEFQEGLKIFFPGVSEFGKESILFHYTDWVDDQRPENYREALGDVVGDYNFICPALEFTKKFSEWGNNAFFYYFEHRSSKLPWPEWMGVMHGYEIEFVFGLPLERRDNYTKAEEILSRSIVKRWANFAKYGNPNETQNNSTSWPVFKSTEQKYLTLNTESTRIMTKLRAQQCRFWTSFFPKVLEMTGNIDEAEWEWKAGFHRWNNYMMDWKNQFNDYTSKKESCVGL
T2 sequence (P22303 32-614): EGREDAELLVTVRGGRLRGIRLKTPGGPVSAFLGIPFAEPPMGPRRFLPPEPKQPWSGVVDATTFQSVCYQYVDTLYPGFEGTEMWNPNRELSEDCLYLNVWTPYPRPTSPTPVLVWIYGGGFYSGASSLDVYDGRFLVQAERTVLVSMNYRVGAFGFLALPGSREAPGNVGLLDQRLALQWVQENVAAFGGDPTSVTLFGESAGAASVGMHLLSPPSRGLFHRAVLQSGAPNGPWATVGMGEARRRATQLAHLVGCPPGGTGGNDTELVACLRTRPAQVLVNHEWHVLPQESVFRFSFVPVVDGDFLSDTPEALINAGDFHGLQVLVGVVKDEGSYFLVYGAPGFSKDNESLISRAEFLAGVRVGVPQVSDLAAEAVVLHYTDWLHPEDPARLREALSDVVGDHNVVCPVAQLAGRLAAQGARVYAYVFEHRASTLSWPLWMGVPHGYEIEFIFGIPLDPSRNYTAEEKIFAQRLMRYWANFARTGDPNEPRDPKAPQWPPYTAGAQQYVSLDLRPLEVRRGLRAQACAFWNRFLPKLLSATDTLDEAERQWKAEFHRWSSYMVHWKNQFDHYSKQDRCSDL
human recombinant acetylcholinesterase (AChE or HuAChE), sequence (P22303 32-614): as above
T1 sequence (P56817 46-501): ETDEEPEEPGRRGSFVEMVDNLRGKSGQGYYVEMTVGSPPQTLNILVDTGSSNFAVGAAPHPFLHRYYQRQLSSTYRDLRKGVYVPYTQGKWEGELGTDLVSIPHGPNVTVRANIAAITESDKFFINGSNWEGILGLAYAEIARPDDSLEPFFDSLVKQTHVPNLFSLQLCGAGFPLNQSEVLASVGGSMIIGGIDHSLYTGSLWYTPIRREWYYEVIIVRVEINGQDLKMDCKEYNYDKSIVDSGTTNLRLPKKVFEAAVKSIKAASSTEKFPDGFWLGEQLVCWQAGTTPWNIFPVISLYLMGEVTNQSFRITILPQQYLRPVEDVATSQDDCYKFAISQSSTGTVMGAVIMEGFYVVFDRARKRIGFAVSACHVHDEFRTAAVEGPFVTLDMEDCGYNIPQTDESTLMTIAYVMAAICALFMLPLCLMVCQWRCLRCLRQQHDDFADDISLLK

In series [1], `Nc1c2c(nc3ccccc13)CCCC2` [Tacrine, reference compound] returned an IC50 of over 4000 nM. The “recovery of the cholinergic deficit (number of cholinergic neurones in the basal forebrain)” value (from here on “recovery of the cholinergic deficit”) in series [2] is “did not allow the complete recovery of the cholinergic deficit”.

Regarding `O=C(CCCCC1CCSS1)NCCCCCCNc1c2c(nc3ccccc13)CCCC2` (stereo not drawn) [Compound 5, 5-[1,2]dithiolan-3-yl-pentanoic acid [6-(1,2,3,4-tetrahydro-acridin-9-ylamino)-hexyl]-amide], the values for the IC50 in series [3] (setting [9]) and in series [4] (setting [10]) were 30.1 nM and 3.24 nM, respectively.

As for `CCN(C)C(=O)Oc1cccc([C@H](C)N(C)C)c1` [Rivastigmine], the IC50 in series [1] is over 3000 nM.

Take `O=C(CCCCC1CCSS1)NCCNc1c2c(nc3ccccc13)CCCC2` (stereo not drawn) [Compound 1, 5-[1,2]dithiolan-3-yl-pentanoic acid [2-(1,2,3,4-tetrahydro-acridin-9-ylamino)-ethyl]amide]: the results for the IC50 in series [3] (setting [9]) and in series [4] (setting [10]) were 97 nM and 47.5 nM, respectively.

As for `NCCCNc1c2c(nc3cc(Cl)ccc13)CCCC2` [Compound 15, N^1-(6-chloro-1,2,3,4-tetrahydro-acridin-9-yl)-propane-1,3-diamine], the half-inhibitory concentration (IC50) in series [3] (read-out: IC50 AChE) is 21.5 nM. Further, the “decrease of cellular viability” value in series [5] (10 μM) is listed as 88%; in series [5] (50 μM), 99%. The “effect on cellular viability (MTT)” value in series [5] (0.1-50 μM) was “has a neurotoxic effect”. The “% intracellular ROS” value in series [6] (0.1 μM) was 88.75 ± 8.41%; in series [6] (0.5 μM), 95.00 ± 5.20%; in series [6] (1 μM), 77.00 ± 8.76%; in series [6] (5 μM), 61.67 ± 9.02* %; in series [6] (10 μM), 51.25 ± 9.21** %; in series [6] (50 μM), 30.50 ± 9.04** %. In series [6] (0.1-50 μM for LA and 7, 0.1-5 μM for 15), the “effect on ROS formation, in words” value is given as “did not show any difference as regards ROS formation”. Also, the inhibition at 100 µM in series [7] was 25 ± 5%.

Turning to `COc1cccc(C(C)N(C)CCCNC(=O)CCCCC2CCSS2)c1` (stereo not drawn) [Compound 20, 5-[1,2]dithiolan-3-yl-pentanoic acid (3-{[1-(3-methoxy-phenyl)-ethyl]-methyl-amino}-propyl)-amide], the IC50 was 74100 nM in series [3] (setting [9]) and 398 nM in series [4] (setting [10]). For the same molecule, in series [7], the inhibition at 100 µM came to 15.6 ± 7.8%. Also, in series [2], the “recovery of the cholinergic deficit” value is “did not allow the complete recovery of the cholinergic deficit”.

For the molecule `COc1cc2nc(Cl)nc(NCCCNC(=O)CCCCC3CCSS3)c2cc1OC` (stereo not drawn) [Compound 23, 5-[1,2]dithiolan-3-yl-pentanoic acid [3-(2-chloro-6,7-dimethoxy-chinazoline-4-ylamino)-propyl]-amide], in series [3], the IC50 worked out at 192000 nM. Also, the inhibition at 100 µM in series [7] was 32.1 ± 3.9%.

Take `O=C(CCCCC1CCSS1)NCCCCCCCNc1c2c(nc3ccccc13)CCCC2` (stereo not drawn) [Compound 6, 5-[1,2]dithiolan-3-yl-pentanoic acid [7-(1,2,3,4-tetrahydro-acridin-9-ylamino)-heptyll]-amide]: the IC50 in series [4] (setting [10]) stood at 8.58 nM.

Turning to `O=C(CCCCC1CCSS1)NCCCCNc1c2c(nc3ccccc13)CCCC2` (stereo not drawn) [Compound 3, 5-[1,2]dithiolan-3-yl-pentanoic acid [4-(1,2,3,4-tetrahydro-acridin-9-ylamino)-butyl]amide], the IC50 in series [3] (setting [9]) is 35.2 nM; in series [4] (read-out: IC50 BChE) it was 5.04 nM.

With `Nc1c2c(nc3cc(Cl)ccc13)CC(CNC(=O)CCCCC1CCSS1)CC2` (stereo not drawn) [Compound 8, 5-[1,2]dithiolan-3-yl-pentanoic acid (9-Amino-6-chloro-1,2,3,4-tetrahydro-acridin-3-ylmethyl)-amide], the IC50 in series [3] (setting [9]) amounted to 232 nM.

As for `CC(c1cccc(OCCCNC(=O)CCCCC2CCSS2)c1)N(C)C` (stereo not drawn) [Compound 19, 5-[1,2]dithiolan-3-yl-pentanoic acid {3-[3-(1-dimethylamino-ethyl)-phenoxy]-propyl}-amide], the IC50 in series [3] (setting [9]) was 25200 nM; in series [4], 82400 nM. Moreover, the inhibition at 100 µM in series [7] worked out at 9 ± 6.6%. Further, the “recovery of the cholinergic deficit” value in series [2] is “did not allow the complete recovery of the cholinergic deficit”.

`COc1ccc2c3c1O[C@H]1C[C@@H](O)C=C[C@@]31CCN(C)C2` [Galantamine] displayed an IC50 in series [1] of over 5000 nM.

As for `O=C(CCCCc1cccs1)NCCCNc1c2c(nc3cc(Cl)ccc13)CCCC2` [Compound 21, 5-thiofen-2-yl-pentanoic acid [3-(6-chloro-1,2,3,4-tetrahydro-acridin-9-ylamino)-propyl]-amide], the IC50 turned out to be 2.66 nM in series [3] and 30.6 nM in series [4] (setting [10]). Also, in series [7], the inhibition at 100 µM was 24.1 ± 5.7%.

For the molecule `O=C(CCCCC1CCSS1)NCCCNc1c2c(nc3ccccc13)CCCC2` (stereo not drawn) [Compound 2, 5-[1,2]dithiolan-3-yl-pentanoic acid [3-(1,2,3,4-tetrahydro-acridin-9-ylamino)propyl]amide], the IC50 in series [3] (setting [9]) came out at 6.96 nM; in series [4] (setting [10]) it was 12 nM.

For the molecule `CC[C@H](C)[C@H](NC(=O)[C@H](CCC(=O)O)NC(=O)[C@H](CCC(=O)O)NC(=O)[C@@H](NC(=O)[C@@H](N)CCCCN)[C@@H](C)O)C(=O)N[C@@H](CO)C(=O)N[C@@H](CCC(=O)O)C(=O)N[C@H](C(=O)N[C@@H](CC(N)=O)C(=O)N[C@@H](CC(C)C)[C@@H](O)CC(=O)N[C@H](C(=O)N[C@@H](C)C(=O)N[C@@H](CCC(=O)O)C(=O)N[C@@H](Cc1ccccc1)C(=O)O)C(C)C)C(C)C` [peptide derivative of statin] (H-KTEEISEVN[Sta]VAEF-OH), in series [1], it took 18 nM to reach half-maximal inhibition (IC50).

As to `CCN(CCCCCCNC(=O)CCCCC1CCSS1)Cc1ccccc1OC` (stereo not drawn) [Compound 18, 5-[1,2]dithiolan-3-yl-pentanoic acid {6-[Ethyl-(2-methoxy-benzyl)-amino]-hexyl}-amide], the IC50 in series [3] (setting [9]) was determined as 256 nM; in series [4] (setting [10]), 2490 nM. For the same molecule, in series [7], the inhibition at 100 µM came out at 16.8 ± 2.2%. Besides, the “recovery of the cholinergic deficit” value in series [2] is given as “significant recovery”.

Consider `O=C(O)CCCCC1CCSS1` (stereo not drawn) [LA, lipoic acid, reference compound], for which the “% of inhibition ± SEM of AChE-induced Aβ40 aggregation” value in series [8] (compound 100 μM) is under 5%. For the same molecule, in series [2], the “recovery of the cholinergic deficit” value is “did not allow the complete recovery of the cholinergic deficit”.

Take `O=C(CCCCC1CCSS1)NCCCCCNc1c2c(nc3ccccc13)CCCC2` (stereo not drawn) [Compound 4, 5-[1,2]dithiolan-3-yl-pentanoic acid [5-(1,2,3,4-tetrahydro-acridin-9-ylamino)-pentyl]-amide]: the IC50 came out at 38.4 nM in series [3] (setting [9]) and 1.48 nM in series [4] (read-out: IC50 BChE).

On to `O=C(CCCC[C@@H]1CCSS1)NCCCNc1c2c(nc3cc(Cl)ccc13)CCCC2` [Compound 24], for which the IC50 in series [3] was 0.23 nM. Further, in series [8], the “power versus other classic AChE inhibitors approved for AD (AChE-induced Aβ40 aggregation)” value is listed as “significantly more powerful than other classic AChE inhibitors”. Further, the inhibition at 100 µM in series [7] is 68 ± 3%.

What is called IC50 is the concentration needed to halve the response being measured. A word on the inhibition: it is the share of the control response that was lost under treatment.

The values are drawn from patent US7307083B2, “Tetrahydro-acridine and dithiolane derivatives” (priority 2005, dated 2007).
